One block for each compound: values may come before it.
Assay: Viscosity in aqueous solution at 20° C. (Example 82, Tables 1 and 2)
Assay type: physicochemical
Details: for Viscosity at 400 mgI/ml (CALCULATED): calculated for 400 mgI/ml; for Viscosity 350 mgI/ml (CALCULATED): calculated for 350 mgI/ml
Experimental: The viscosities in aqueous solution at 20° C. for some further compounds described above were determined and are listed in Table 2. […]

Viscosity at 400 mgI/ml (CALCULATED): 17.4 mPas
Viscosity 20° C. (concentration 403 mgI/ml): 18 mPas
Viscosity (iodine concentration 403 mgI/mL): 18 mPas
SMILES: CC(CO)(CO)C(=O)Nc1c(I)c(CO)c(I)c(C(=O)NCC(O)CO)c1I (stereo not drawn) [Example 32, 5-(3-Hydroxy-2-methyl-2-hydroxymethyl-propionylamino)-3-hydroxymethyl-N-(2,3-dihydroxypropyl)-2,4,6-triiodobenzamide]

Viscosity at 400 mgI/ml (CALCULATED): 10.8 mPas
Viscosity 20° C. (concentration 481 mgI/ml): 24 mPas
SMILES: CN(CC(O)CO)C(=O)c1c(I)c(CCO)c(I)c(NC(=O)CO)c1I (stereo not drawn) [Example 44, 5-Hydroxyacetamido-3-hydroxyethyl-N-methyl-N-(2,3-dihydroxy-propyl)-2,4,6-triiodobenzamide]

Viscosity at 400 mgI/ml (CALCULATED): 13.9 mPas
Viscosity 20° C. (concentration 483 mgI/ml): 32 mPas
SMILES: CN(CC(O)CO)C(=O)c1c(I)c(CO)c(I)c(N(CCO)C(=O)CO)c1I (stereo not drawn) [Example 45, 5-[N′-(2-Hydroxyethyl)-hydroxyacetamido]-3-hydroxymethyl-N-methyl-N-(2,3-dihydroxypropyl)-2,4,6-triiodobenzamide]

Viscosity at 400 mgI/ml (CALCULATED): 16.2 mPas
Viscosity 20° C. (concentration 407 mgI/ml): 18 mPas
SMILES: O=C(CO)Nc1c(I)c(CO)c(I)c(C(=O)N(CC(O)CO)CC(O)CO)c1I (stereo not drawn) [Example 67, 5-(hydroxyacetamido)-3-hydroxymethyl-N,N-bis-(2,3-dihydroxy-propyl)-2,4,6-triiodobenzamide]

Viscosity at 400 mgI/ml (CALCULATED): 12.5 mPas
Viscosity 20° C. (concentration 412 mgI/ml): 14 mPas
Viscosity (iodine concentration 412 mgI/mL): 14 mPas
SMILES: CC(O)C(=O)Nc1c(I)c(CO)c(I)c(C(=O)NCC(O)CO)c1I (stereo not drawn) [Example 27, 5-(2-Hydroxypropionylamino)-3-hydroxymethyl-N-(2,3-dihydroxypropyl)-2,4,6-triiodobenzamide]

Second part, the compound before the results:

SMILES: CC(O)C(=O)Nc1c(I)c(CO)c(I)c(N(CC(O)CO)C(=O)C(C)O)c1I (stereo not drawn) [Example 11, N,N′-Bis(2-hydroxypropionyl)-N-(2,3-dihydroxypropyl)-3,5-diamino-2,4,6-triiodobenzylalcohol]
Viscosity at 400 mgI/ml (CALCULATED): 15 mPas
Viscosity 20° C. (concentration 409 mgI/ml): 17 mPas
Viscosity (iodine concentration 407 mgI/mL): 16 mPas

SMILES: O=C(NCC(O)CO)c1c(I)c(CO)c(I)c(N(CCO)C(=O)C(O)CO)c1I (stereo not drawn) [Example 30, 5-[N′-(2-Hydroxyethyl)-2,3-dihyroxypropionylamino]-3-hydroxymethyl-N-(2,3-dihydroxypropyl)-2,4,6-triiodobenzamide]
Viscosity 350 mgI/ml (CALCULATED): 13.4 mPas
Viscosity at 400 mgI/ml (CALCULATED): 23.3 mPas
Viscosity 20° C. (concentration 391 mgI/ml): 21 mPas
Viscosity (iodine concentration 391 mgI/mL): 21 mPas

SMILES: O=C(Nc1c(I)c(CC(O)CO)c(I)c(NC(=O)C(O)CO)c1I)C(O)CO (stereo not drawn) [Example 64, 3,5-Bis-(2,3-dihydroxypropionylamino)-2,4,6-triiodo-(2,3-dihydroxy-propyl)-benzene]
Viscosity 350 mgI/ml (CALCULATED): 8.3 mPas
Viscosity at 400 mgI/ml (CALCULATED): 13.0 mPas
Viscosity 20° C. (concentration 419 mgI/ml): 16 mPas

SMILES: CN(CC(O)CO)C(=O)c1c(I)c(CO)c(I)c(NC(=O)C(O)CO)c1I (stereo not drawn) [Example 46]
Viscosity at 400 mgI/ml (CALCULATED): 16.4 mPas
Viscosity 20° C. (concentration 474 mgI/ml): 41 mPas

SMILES: O=C(NCCO)c1c(I)c(CO)c(I)c(N(CC(O)CO)C(=O)C(O)CO)c1I (stereo not drawn) [Example 66, 5-[N′-(2,3-Dihydroxypropyl)-2,3-dihydroxypropionylamino]-3-hydroxymethyl-N-(2-hydroxyethyl)-2,4,6-triiodobenzamide]
Viscosity 350 mgI/ml (CALCULATED): 9.3 mPas
Viscosity at 400 mgI/ml (CALCULATED): 15.2 mPas
Viscosity 20° C. (concentration 401 mgI/ml): 15 mPas

SMILES: CC(O)C(=O)Nc1c(I)c(CO)c(I)c(NC(=O)C(C)O)c1I (stereo not drawn) [Example 8, N,N′-Bis(2-hydroxypropionyl)-3,5-diamino-2,4,6-triiodobenzylalcohol]
Viscosity at 400 mgI/ml (CALCULATED): 11.0 mPas
Viscosity 20° C. (concentration 370 mgI/ml): 8.3 mPas
Viscosity (iodine concentration 370 mgI/mL): 8.3 mPas

SMILES: O=C(CO)N(CC(O)CO)c1c(I)c(CC(O)CO)c(I)c(N(CC(O)CO)C(=O)CO)c1I (stereo not drawn) [Example 75, 3,5-Bis-[N,N′-(2,3-dihydroxypropyl)-hydroxyacetamido]-2,4,6-triiodo-(2,3-dihydroxypropyl)benzene]
Viscosity 350 mgI/ml (CALCULATED): 14.6 mPas
Viscosity at 400 mgI/ml (CALCULATED): 28.4 mPas
Viscosity 20° C. (concentration 359 mgI/ml): 16 mPas

— patent publication US6448442B1, “Contrast media” (Amersham Health AS, priority 1999, dated 2002)
